The source of these data is US20230357239A1, “PYRIDO[2,3-D]PYRIMIDIN-4-AMINES AS SOS1 INHIBITORS” (Bayer Aktiengesellschaft, priority 2020, published 2023).

In the test the target is human SOS1 (SOS1) with human K-RasG12C (Homo sapiens (Human), UniProt Q07889). In words: hK-RasG12C interaction assay with hSOS1 (HTRF). The class given is binding. To be noted: GST-hK-RasG12C and His-hSOS1, 60 min incubation at 20° C, mean, read-out: K-RasG12C - SOS interaction assay IC50 - [mol/l] (mean). On the procedure: Biochemical Assay: hK-RasG12C Interaction Assay with hSOS1
This assay quantifies the equilibrium interaction of human SOS1 (SOS1) with human K-Ras^G12C (K-RasG12C). Detection of the interaction is achieved by measuring homogenous time-resolved fluorescence resonance energy transfer (HTRF) from antiGST-Europium (FRET donor) bound to GST-K-RasG12C to anti-6His-XL665 bound to His-tagged hSOS1 (FRET-acceptor).
The assay buffer containes 5 mM HEPES pH 7.4 (Applichem), 150 mM NaCl (Sigma), 10 mM EDTA (Promega), 1 mM DTT (Thermofisher), 0.05% BSA Fraction V, pH 7.0, (ICN Biomedicals), 0.0025% (v/v) Igepal (Sigma) and 100 mM KF (FLUKA).
Concentrations of protein batches used are optimized to be within the linear range of the HTRF signal. A Ras working solution is prepared in assay buffer containing typically 10 nM GST-hK-RasG12C and 2 nM antiGST-Eu(K) (Cisbio, France). A SOS1 working solution is prepared in assay buffer containing typically 20 nM His-hSOS1 and 10 nM anti-6His-XL665 (Cisbio, France). An inhibitor control solution is prepared in assay buffer containing 10 nM anti-6His-XL665 without SOS1.
Fifty nl of a 100-fold concentrated solution of the test compound in DMSO are transferred into a black microtiter test plate (384 or 1536, Greiner Bio-One, Germany).
For this, either a Hummingbird liquid handler (Digilab, MA, USA) or an Echo acoustic system (Labcyte, CA, USA) is used.
All steps of the assay are performed at 20° C. A volume of 2.5 μl of the Ras working solution is added to all wells of the test plate using a Multidrop dispenser (Thermo Labsystems). After 2 min preincubation, 2.5 μl of the SOS1 working solution are added to all wells except for those wells at the side of the test plate that are subsequently filled with 2.5 μl of the inhibitor control solution. After 60 min incubation the fluorescence is measured with a Pherastar (BMG, Germany) using the HTRF module (excitation 337 nm, emission 1: 620 nm, emission 2: 665 nm).
The ratiometric data (emission 2 divided by emission 1) are normalized using the controls (DMSO=0% inhibition, inhibition control wells with inhibitor control solution=100% inhibition). […] IC50 values are calculated by 4-Parameter fitting using a commercial software package (Genedata Screener, Switzerland).

Sequence of human SOS1 (SOS1) with human K-RasG12C (Q07889 564-1049): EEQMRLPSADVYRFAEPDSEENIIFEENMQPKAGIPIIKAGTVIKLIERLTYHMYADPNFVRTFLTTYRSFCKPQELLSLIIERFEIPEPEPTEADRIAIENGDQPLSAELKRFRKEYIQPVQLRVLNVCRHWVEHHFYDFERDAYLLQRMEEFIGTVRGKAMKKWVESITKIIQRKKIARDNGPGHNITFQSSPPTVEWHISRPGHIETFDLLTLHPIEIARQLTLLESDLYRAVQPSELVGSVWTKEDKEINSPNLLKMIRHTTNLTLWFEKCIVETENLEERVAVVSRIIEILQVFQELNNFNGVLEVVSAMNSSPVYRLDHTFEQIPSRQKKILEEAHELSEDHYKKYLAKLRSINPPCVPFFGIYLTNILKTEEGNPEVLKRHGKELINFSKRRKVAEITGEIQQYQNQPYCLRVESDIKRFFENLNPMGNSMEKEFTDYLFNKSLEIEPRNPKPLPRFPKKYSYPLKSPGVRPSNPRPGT

With `CC(=O)N1CC2(C1)CN(c1cc3c(N[C@H](C)c4cccc(C(F)(F)CO)c4F)nc(C)nc3nc1C(F)(F)F)C2` [Example 24, 1-{6-[4-({(1R)-1-[3-(1,1-difluoro-2-hydroxyethyl)-2-fluorophenyl]ethyl}amino)-2-methyl-7-(trifluoromethyl)pyrido[2,3-d]pyrimidin-6-yl]-2,6-diazaspiro[3.3]heptan-2-yl}ethan-1-one], the IC50 came to 0.0028 µM.
For `CC(=O)N1CC=C(c2cnc3nc(C)nc(N[C@H](C)c4cccc(C(F)(F)F)c4C)c3c2)CC1` [Example 25, 1-{4-[2-methyl-4-({(1R)-1-[2-methyl-3-(trifluoromethyl)phenyl]ethyl}amino)pyrido[2,3-d]pyrimidin-6-yl]-3,6-dihydropyridin-1(2H)-yl}ethan-1-one], the IC50 was found to be 0.00578 µM.
Consider `CC(=O)N1CC=C(c2cnc3nc(C)nc(N[C@H](C)c4cccc(C(F)(F)F)c4C)c3c2)CC1` [Example 26, 1-{4-[2-methyl-4-({(1R)-1-[2-methyl-3-(trifluoromethyl)phenyl]ethyl}amino)pyrido[2,3-d]pyrimidin-6-yl]-3,6-dihydropyridin-1(2H)-yl}ethan-1-one hydrogen], for which the IC50 came out at 0.00575 µM.
Take `CC(=O)N1CC2(CC=C(c3cnc4nc(C)nc(N[C@H](C)c5cccc(C(F)(F)F)c5C)c4c3)CC2)C1` [Example 27, 1-{7-[2-methyl-4-({(1R)-1-[2-methyl-3-(trifluoromethyl)phenyl]ethyl}amino)pyrido[2,3-d]pyrimidin-6-yl]-2-azaspiro[3.5]non-6-en-2-yl}ethan-1-one]: the IC50 was determined as 0.00796 µM.
Consider `CC(=O)N1CC2(CCC(c3cnc4nc(C)nc(N[C@H](C)c5cccc(C(F)(F)F)c5C)c4c3)CC2)C1` [Example 28, 1-{7-[2-methyl-4-({(1R)-1-[2-methyl-3-(trifluoromethyl)phenyl]ethyl}amino)pyrido[2,3-d]pyrimidin-6-yl]-2-azaspiro[3.5]nonan-2-yl}ethan-1-one], for which the IC50 stood at 0.0094 µM.
Regarding `CC(=O)N1CC2(C1)CN(c1cnc3nc(C)nc(N[C@H](C)c4cccc(C(F)F)c4F)c3c1)C2` [Example 29, 1-{6-[4-({(1R)-1-[3-(difluoromethyl)-2-fluorophenyl]ethyl}amino)-2-methylpyrido[2,3-d]pyrimidin-6-yl]-2,6-diazaspiro[3.3]heptan-2-yl}ethan-1-one], the IC50 was 0.0256 µM.
`CC(=O)N1CC=C(c2cnc3nc(C)nc(N[C@H](C)c4cccc(C(F)(F)F)c4C)c3c2)C1` [Example 30, 1-{3-[2-methyl-4-({(1R)-1-[2-methyl-3-(trifluoromethyl)phenyl]ethyl}amino)pyrido[2,3-d]pyrimidin-6-yl]-2,5-dihydro-1H-pyrrol-1-yl}ethan-1-one]: the IC50 worked out at 0.038 µM.
In the case of `COc1cnc2nc(C)nc(N[C@H](C)c3cccc(C(F)(F)F)c3C)c2c1` [Example 32, 6-methoxy-2-methyl-N-{(1R)-1-[2-methyl-3-(trifluoromethyl)phenyl]ethyl}pyrido[2,3-d]pyrimidin-4-amine], the IC50 was 0.0664 µM.
`Cc1nc(N[C@H](C)c2cccc(C(F)(F)F)c2C)c2cc(N(C)S(C)(=O)=O)cnc2n1` [Example 33, N-methyl-N-[2-methyl-4-({(1R)-1-[2-methyl-3-(trifluoromethyl)phenyl]ethyl}amino)pyrido[2,3-d]pyrimidin-6-yl]methanesulfonamide]: the IC50 was 0.0279 µM.
With `Cc1nc(N[C@H](C)c2cccc(C(F)(F)F)c2C)c2cc(N3CCCS3(=O)=O)cnc2n1` [Example 34, 2-[2-methyl-4-({(1R)-1-[2-methyl-3-(trifluoromethyl)phenyl]ethyl}amino)pyrido[2,3-d]pyrimidin-6-yl]-1 lambda^6,2-thiazolidine-1,1-dione], the IC50 was determined as 0.013 µM.
Regarding `CC(=O)N1CCN(c2cnc3nc(C)nc(N[C@H](C)c4cccc(C(F)(F)F)c4C)c3c2)CC1` [Example 35, 1-{4-[2-methyl-4-({(1R)-1-[2-methyl-3-(trifluoromethyl)phenyl]ethyl}amino)pyrido[2,3-d]pyrimidin-6-yl]piperazin-1-yl}ethan-1-one], the IC50 amounted to 0.00771 µM.
`CC(=O)N1CC[N+]([O-])(c2cnc3nc(C)nc(N[C@H](C)c4cccc(C(F)(F)F)c4C)c3c2)CC1` [Example 36, 1-{4-[2-methyl-4-({(1R)-1-[2-methyl-3-(trifluoromethyl)phenyl]ethyl}amino)pyrido[2,3-d]pyrimidin-6-yl]-4-oxo-4lambda^5-piperazin-1-yl}ethan-1-one]: the IC50 amounted to 0.00646 µM.
Take `CC(=O)N1CC2(C1)CN(c1cc3c(N[C@H](C)c4cccc(C(F)F)c4F)nc(C)nc3nc1C)C2` [Example 37, 1-{6-[4-({(1R)-1-[3-(difluoromethyl)-2-fluorophenyl]ethyl}amino)-2,7-dimethylpyrido[2,3-d]pyrimidin-6-yl]-2,6-diazaspiro[3.3]heptan-2-yl}ethan-1-one]: the IC50 was 0.00847 µM.
Under `COc1cc2c(N[C@H](C)c3cccc(C(F)(F)F)c3C)nc(C)nc2nc1C` [Example 38, 6-methoxy-2,7-dimethyl-N-{(1R)-1-[2-methyl-3-(trifluoromethyl)phenyl]ethyl}pyrido[2,3-d]pyrimidin-4-amine] stands 0.0463 µM.
For `Cc1nc(N[C@H](C)c2cccc(C(F)F)c2F)c2cc(N3CCCS3(=O)=O)c(C)nc2n1` [Example 39, 2-[4-({(1R)-1-[3-(difluoromethyl)-2-fluorophenyl]ethyl}amino)-2,7-dimethylpyrido[2,3-d]pyrimidin-6-yl]-1 lambda^6,2-thiazolidine-1,1-dione], the IC50 was 0.0162 µM.
Consider `CC(=O)N1CC(c2cnc3nc(C)nc(N[C@H](C)c4cccc(C(F)(F)F)c4C)c3c2)C1` [Example 40, 1-{3-[2-methyl-4-({(1R)-1-[2-methyl-3-(trifluoromethyl)phenyl]ethyl}amino)pyrido[2,3-d]pyrimidin-6-yl]azetidin-1-yl}ethan-1-one], for which the IC50 worked out at 0.0161 µM.
Regarding `CC(=O)N1CC=C(c2cc3c(N[C@H](C)c4cccc(C(F)(F)F)c4C)nc(C)nc3nc2C(F)(F)F)CC1` [Example 41, 1-{4-[2-methyl-4-({(1R)-1-[2-methyl-3-(trifluoromethyl)phenyl]ethyl}amino)-7-(trifluoromethyl)pyrido[2,3-d]pyrimidin-6-yl]-3,6-dihydropyridin-1(2H)-yl}ethan-1-one], the IC50 turned out to be 0.023 µM.
Under `CC(=O)N1CCC(c2cc3c(N[C@H](C)c4cccc(C(F)(F)F)c4C)nc(C)nc3nc2C(F)(F)F)CC1` [Example 42, 1-{4-[2-methyl-4-({(1R)-1-[2-methyl-3-(trifluoromethyl)phenyl]ethyl}amino)-7-(trifluoromethyl)pyrido[2,3-d]pyrimidin-6-yl]piperidin-1-yl}ethan-1-one] stands 0.0289 µM.
For the molecule `CC(=O)N1CC=C(c2cnc3nc(C)nc(N[C@H](C)c4cccc(C(F)F)c4F)c3c2)CC1` [Example 43, 1-{4-[4-({(1R)-1-[3-(difluoromethyl)-2-fluorophenyl]ethyl}amino)-2-methylpyrido[2,3-d]pyrimidin-6-yl]-3,6-dihydropyridin-1(2H)-yl}ethan-1-one], the IC50 is 0.0052 µM.
Consider `CC(=O)N1CCC(c2cnc3nc(C)nc(N[C@H](C)c4cccc(C(F)F)c4F)c3c2)CC1` [Example 44, 1-{4-[4-({(1R)-1-[3-(difluoromethyl)-2-fluorophenyl]ethyl}amino)-2-methylpyrido[2,3-d]pyrimidin-6-yl]piperidin-1-yl}ethan-1-one], for which the IC50 worked out at 0.00843 µM.
